PubChem BioAssay (NCI)
Where “and” joins values, the source holds several entries; their conditions need not be identical. Identical values can stand only once.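 All cell lines were grown in 96-well plates and treated with compound for 48 hours. GI50 is the concentration that inhibits growth by half. TGI denotes the concentration required for complete inhibition of growth.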

Legend:
Experiment in all cases: NCI-60 cell line screen, 48 h
CAKI-1 renal = tested on: CAKI-1 renal
KM12 colon = tested on: KM12 colon
MDA-N = tested on: MDA-N
NCI/ADR-RES ovarian = tested on: NCI/ADR-RES ovarian
OVCAR-3 ovarian = tested on: OVCAR-3 ovarian
OVCAR-5 ovarian = tested on: OVCAR-5 ovarian
SF-268 CNS = tested on: SF-268 CNS
SW-620 colon = tested on: SW-620 colon
UACC-257 melanoma = tested on: UACC-257 melanoma
HL-60(TB) leukemia = tested on: HL-60(TB) leukemia

SMILES | TGI (CAKI-1 renal) | TGI (KM12 colon) | TGI (MDA-N) | TGI (NCI/ADR-RES ovarian) | TGI (OVCAR-3 ovarian) | TGI (OVCAR-5 ovarian) | TGI (SF-268 CNS) | TGI (SW-620 colon) | TGI (UACC-257 melanoma) | TGI (HL-60(TB) leukemia) | GI50 (OVCAR-3 ovarian) | GI50 (OVCAR-5 ovarian) | GI50 (UACC-257 melanoma)
COc1cc2c(cc1OC)-c1cc3ccccc3c(=O)n1CC2 | 64.9 µM | 53.5 µM | > 100 µM | > 100 µM | 73.3 µM | > 100 µM | > 100 µM | > 100 µM | > 100 µM |  |  |  | 
CCOC(=O)C1CCC(=O)N1C(=O)c1ccccc1 (centres undefined) | > 100 µM | > 100 µM |  | > 100 µM | > 100 µM | > 100 µM | > 100 µM | > 100 µM | > 100 µM | > 100 µM |  |  | 
CCON1CC(C(=O)OC)=C(O)C1=O | > 100 µM | > 100 µM | > 100 µM | > 100 µM | > 100 µM | > 100 µM | > 100 µM | > 100 µM | > 100 µM |  |  |  | 
CC(=O)OC1CCC2C3CCc4c(C)ccc(OS(=O)(=O)c5ccccc5)c4C3CCC12C (centres undefined) | > 100 µM |  | > 100 µM |  | 46.7 µM | > 100 µM | > 100 µM | > 100 µM | > 100 µM | > 100 µM |  |  | 
C1=C\SS/C=C\SS/1 |  | > 100 µM | > 100 µM | > 100 µM |  | > 100 µM | > 100 µM | > 100 µM | > 100 µM | 35.4 µM |  |  | 
CCOC(=O)c1nc2cc(C(F)(F)F)ccc2nc1Nc1ccc(C(=O)NC(C(=O)OCC)C(=O)OCC)cc1 | 37 µM | > 100 µM |  |  | > 100 µM | > 100 µM | 53.6 µM | > 100 µM | 51.9 µM | > 100 µM |  |  | 
CCCSc1nc(-c2ccc(OC)cc2)c(C#N)c(=O)n1C1OC(COC(C)=O)C(OC(C)=O)C(OC(C)=O)C1OC(C)=O (centres undefined) |  | > 100 µM |  |  | > 100 µM | > 100 µM and 48.8 µM | > 100 µM |  | > 100 µM and 56.6 µM | > 100 µM | > 100 µM and 35.3 µM | > 100 µM and 21.2 µM | > 100 µM and 22.4 µM
C[C@H]1SC(c2ccc(Cl)cc2Cl)N(NC(=O)c2ccncc2)C1=O (some centres undefined) | > 100 µM | > 100 µM | 57.5 µM | > 100 µM | > 100 µM | > 100 µM | 72.3 µM |  |  | > 100 µM |  |  | 
COc1ccc(C2c3cc4c(cc3OC(N3CCOCC3)C2C)OCO4)c(OC)c1OC (centres undefined) | 9.74 µM | 30.8 µM | 8.42 µM | > 100 µM | 45.6 µM | 74.3 µM | 79.8 µM | > 100 µM | 82.2 µM |  |  |  | 
COc1ccc(N(C(=O)Nc2ccc(Cl)c(Cl)c2)C2c3cccn3C(=O)N2c2ccc(Cl)c(Cl)c2)cc1 (centres undefined) | > 100 µM | > 100 µM | > 100 µM | > 100 µM |  | > 100 µM | > 100 µM | > 100 µM | > 100 µM | > 100 µM |  |  | 
CCC(C(=O)C(=O)OC)P1(=O)OC(C)(C)CN1C(C)(C)C (centres undefined) | > 100 µM | > 100 µM |  | > 100 µM | > 100 µM | > 100 µM | > 100 µM | > 100 µM | > 100 µM |  |  |  | 
COc1ccc(NC(=S)NC(=O)c2ccc3c(c2)Sc2ccccc2O3)c([N+](=O)[O-])c1 | > 100 µM | > 100 µM | > 100 µM | > 100 µM | 58.5 µM | > 100 µM | 45.7 µM |  | > 100 µM | 82.1 µM |  |  | 
OCc1ccc2c(c1)CC1(Cc3ccc(/C=N/O)cc3C1)C2 (centres undefined) | > 89.7 µM | 19.1 µM |  | 37 µM | 17.1 µM | > 87.7 µM | > 100 µM | > 100 µM | 18.7 µM |  |  |  | 
O=c1[nH]c(=O)n(C2CC(O)C(CO)O2)cc1OCc1ccccc1 (centres undefined) | > 100 µM | > 100 µM | > 100 µM | > 100 µM | > 100 µM | > 100 µM | > 100 µM |  | > 100 µM | > 100 µM |  |  | 
CN(C)CCC(=O)/C=C\c1ccccc1 | 32.7 µM | 29.2 µM |  |  | 32.2 µM | 35.7 µM |  | 35.8 µM | 31.5 µM | 36.8 µM |  |  | 
c1c2c(cc(-n3nnc4c3CCCCCC4)c1-n1nnc3c1CCCCCC3)CCCCCC2 | 7.17 µM | 25.8 µM |  |  | 64.8 µM | 30 µM | 23.8 µM | 27.4 µM | 32.9 µM | > 100 µM |  |  | 
CCOC(=O)C#Cc1ccccc1 | 33.4 µM | 31.2 µM | 45 µM | > 100 µM | 45.7 µM | 19.3 µM |  | 31.2 µM | > 100 µM | 36.5 µM |  |  | 
CCOC(=O)c1cn2c(n1)sc1cc(Cl)cc(Cl)c12 | > 100 µM | > 100 µM | > 100 µM | > 100 µM | > 100 µM | > 100 µM | > 100 µM | > 100 µM | > 100 µM |  |  |  | 
COc1cc2c(c(O)c1OC)C(=O)C(Cc1ccc(O)cc1)CO2 (centres undefined) | 75.9 µM | > 100 µM |  | 39.2 µM | 26.4 µM | > 100 µM | > 100 µM | > 100 µM | > 100 µM | 98.3 µM |  |  | 
C\C(=N/N=C1/C(=C\N(C)C)C(=O)NC(=O)N1C)c1ccc(Cl)cc1 | > 100 µM | > 100 µM | > 100 µM | > 100 µM | > 100 µM | > 100 µM | > 100 µM | > 100 µM | > 100 µM |  |  |  | 
O=c1cc(N2CCCC2)[nH]c(=O)n1-c1ccccc1 | > 100 µM | > 100 µM |  | > 100 µM |  | > 100 µM |  | > 100 µM | > 100 µM | > 100 µM |  |  | 
O=c1cc(-c2ccccc2)oc2c(-c3cc(Cl)cc4c(=O)cc(-c5ccccc5)oc34)cc(Cl)cc12 |  | > 100 µM | > 100 µM | > 100 µM | 80.5 µM | > 100 µM | > 100 µM | > 100 µM |  | > 100 µM |  |  | 
C=C1c2nc3ccccc3n2C=C(c2ccc(Cl)cc2)N1c1ccc(OC)cc1 | 19.1 µM | 18.7 µM | 45.7 µM | 14 µM | 25.7 µM | 35 µM |  | > 100 µM | 30.5 µM | > 100 µM |  |  | 
COc1cc2c(cc1Cc1c(F)cccc1Cl)nc(-c1c(F)cccc1Cl)n2Cc1c(F)cccc1Cl | 91.3 µM | > 100 µM | > 100 µM | > 100 µM | > 100 µM | > 100 µM | > 100 µM |  | > 100 µM | > 100 µM |  |  | 
